For 3 compounds, inhibition and Activity results are on record in ChEMBL document CHEMBL4419178, “Yap1 inhibitors that target the interaction of yap1 with oct4” (2018).

The source made the active and inactive calls. No cut-off for these calls is given here.

Series [1] addresses Transcriptional coactivator YAP1 (Homo sapiens) (UniProt P46937). Kind of series: Inhibition of YAP1 in human NCI-H1650 cells assessed as reduction in Sox2 protein expression at 10 uM incubated for 72 hrs by Western blot analysis. Type of series: cell-based.
Series [2] shares this target. Kind of series: Inhibition of YAP1 in human NCI-H1650 cells assessed as reduction in c-Myc protein expression at 10 uM incubated for 72 hrs by Western blot analysis. Type of series: cell-based. (Immunoblotting shows a protein as a band on a membrane.)
Series [3] has the same target. Put plainly: Inhibition of YAP1 in human NCI-H1650 cells assessed as reduction in PDK2 protein expression at 10 uM incubated for 72 hrs by Western blot analysis. Type of series: cell-based.
The target is the same in series [4]. Put plainly: Inhibition of YAP1 in human A549 cells assessed as reduction in Sox2 protein expression at 10 uM incubated for 72 hrs by Western blot analysis. Type of series: cell-based.
For series [5] the target is unchanged. Put plainly: Inhibition of YAP1 in human A549 cells assessed as reduction in c-Myc protein expression at 10 uM incubated for 72 hrs by Western blot analysis. Type of series: cell-based.
Series [6] has the same target. Kind of series: Inhibition of YAP1 in human A549 cells assessed as reduction in PDK2 protein expression at 10 uM incubated for 72 hrs by Western blot analysis. Type of series: cell-based.
Series [7] relates to NCI-H1650. Kind of series: Inhibition of adherence-independent cell growth in human NCI-H1650 cells at 5 uM incubated for 33 days. Type of series: functional, cell-based.
Series [8] deals with NCI-H1650. Kind of series: Inhibition of adherence-independent cell growth in human NCI-H1650 cells at 10 uM incubated for 33 days. Type of series: functional, cell-based.
Series [9] concerns NCI-H1703. Kind of series: Inhibition of adherence-independent cell growth in human NCI-H1703 cells at 10 uM incubated for 33 days. Type of series: functional, cell-based.
The subject of series [10] is NCI-H1703. Put plainly: Inhibition of adherence-independent cell growth in human NCI-H1703 cells at 5 uM incubated for 33 days. Type of series: functional, cell-based.
For series [11], the system named is NCI-H146. Put plainly: Inhibition of self-renewal capacity in methotrexate insensitive stem-like side-population cells of human NCI-H146 cells assessed as reduction in number of spheres at 2 uM incubated for 3 days after 7 days methotrexate exposure by sphere formation assay. Type of series: functional.
The test system of series [12] is NCI-H1975. Put plainly: Cytotoxicity in gefitinib and erlotinib resistant human NCI-H1975 cells assessed as reduction in cell viability at 1 to 10 uM incubated for 72 hrs by MTT assay. Type of series: functional, cell-based. (In general: Tetrazolium assays rely on reduction of a dye to a coloured formazan, in cell work by metabolically active cells.)
The target in series [13] is Transcriptional coactivator YAP1 (Homo sapiens) (UniProt P46937). Put plainly: Inhibition of YAP1 in human NCI-H1650 cells assessed as suppression of Sox2 mRNA expression at 5 to 10 uM incubated for 72 hrs by RT-PCR method. Type of series: cell-based.
Chain of Transcriptional coactivator YAP1 (Homo sapiens) (P46937 whole entry): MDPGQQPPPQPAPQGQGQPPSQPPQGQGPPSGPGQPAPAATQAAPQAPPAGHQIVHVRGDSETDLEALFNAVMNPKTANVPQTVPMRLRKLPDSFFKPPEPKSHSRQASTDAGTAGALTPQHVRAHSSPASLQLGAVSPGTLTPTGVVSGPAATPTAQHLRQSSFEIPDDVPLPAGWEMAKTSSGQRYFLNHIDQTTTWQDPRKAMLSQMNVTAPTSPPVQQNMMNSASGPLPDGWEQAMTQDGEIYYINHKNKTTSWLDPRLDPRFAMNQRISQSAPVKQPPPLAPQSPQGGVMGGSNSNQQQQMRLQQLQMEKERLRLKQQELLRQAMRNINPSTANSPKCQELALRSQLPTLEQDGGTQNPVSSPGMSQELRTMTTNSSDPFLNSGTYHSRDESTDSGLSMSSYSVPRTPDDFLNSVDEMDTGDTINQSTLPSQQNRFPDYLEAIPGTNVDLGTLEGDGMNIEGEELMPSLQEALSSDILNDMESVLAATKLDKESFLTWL
Series [14] has the same target. Kind of series: Inhibition of YAP1 in human NCI-H1703 cells assessed as suppression of Sox2 mRNA expression at 5 to 10 uM incubated for 72 hrs by RT-PCR method. Type of series: cell-based.
Series [15] shares this target. Kind of series: Inhibition of YAP1 in human NCI-H146 cells assessed as suppression of Sox2 mRNA expression at 5 to 10 uM incubated for 72 hrs by RT-PCR method. Type of series: cell-based.
Series [16] deals with NCI-H1650. Put plainly: Effect on expression of Oct4 mRNA expression in human NCI-H1650 cells at 5 to 10 uM incubated for 72 hrs by RT-PCR method. Type of series: cell-based. As to conditions: nci-h1650, 72 h.
The subject of series [17] is NCI-H1650. Put plainly: Effect on expression of Nanog mRNA expression in human NCI-H1650 cells at 5 to 10 uM incubated for 72 hrs by RT-PCR method. Type of series: cell-based. Conditions: nci-h1650, 72 h.
Series [18] deals with NCI-H1703. Kind of series: Effect on expression of Oct4 mRNA expression in human NCI-H1703 cells at 5 to 10 uM incubated for 72 hrs by RT-PCR method. Type of series: cell-based. Conditions: nci-h1703, 72 h.
Series [19] has as its system NCI-H1703. Put plainly: Effect on expression of Nanog mRNA expression in human NCI-H1703 cells at 5 to 10 uM incubated for 72 hrs by RT-PCR method. Type of series: cell-based. Conditions: nci-h1703, 72 h.
For series [20], the system named is NCI-H146. Put plainly: Effect on expression of Oct4 mRNA expression in human NCI-H146 cells at 5 to 10 uM incubated for 72 hrs by RT-PCR method. Type of series: cell-based. Conditions: nci-h146, 72 h.
Series [21] has as its system NCI-H146. Kind of series: Effect on expression of Nanog mRNA expression in human NCI-H146 cells at 5 to 10 uM incubated for 72 hrs by RT-PCR method. Type of series: cell-based. As to conditions: nci-h146, 72 h.
Series [22] has as its target Transcriptional coactivator YAP1 (Homo sapiens) (UniProt P46937). Kind of series: Inhibition of YAP1 in human NCI-H1650 cells assessed as suppression of HK2 mRNA expression at 5 to 10 uM incubated for 72 hrs by RT-PCR method. Type of series: cell-based.
Series [23] shares this target. Kind of series: Inhibition of YAP1 in human NCI-H1650 cells assessed as suppression of PDK2 mRNA expression at 5 to 10 uM incubated for 72 hrs by RT-PCR method. Type of series: cell-based.
For series [24] the target is unchanged. Put plainly: Inhibition of YAP1 in human NCI-H1703 cells assessed as suppression of HK2 mRNA expression at 5 to 10 uM incubated for 72 hrs by RT-PCR method. Type of series: cell-based.
For series [25] the target is unchanged. Kind of series: Inhibition of YAP1 in human NCI-H1703 cells assessed as suppression of PDK2 mRNA expression at 5 to 10 uM incubated for 72 hrs by RT-PCR method. Type of series: cell-based.
Series [26] has the same target. Kind of series: Inhibition of YAP1 in human NCI-H146 cells assessed as suppression of HK2 mRNA expression at 5 to 10 uM incubated for 72 hrs by RT-PCR method. Type of series: cell-based.
For series [27] the target is unchanged. Put plainly: Inhibition of YAP1 in human NCI-H146 cells assessed as suppression of PDK2 mRNA expression at 5 to 10 uM incubated for 72 hrs by RT-PCR method. Type of series: cell-based.
Series [28] shares this target. Kind of series: Inhibition of YAP1 in human NCI-H1650 cells assessed as suppression of PD-L1 mRNA expression at 5 to 10 uM incubated for 72 hrs by RT-PCR method. Type of series: cell-based.
Series [29] shares this target. Put plainly: Inhibition of YAP1 in human NCI-H1703 cells assessed as suppression of PD-L1 mRNA expression at 5 to 10 uM incubated for 72 hrs by RT-PCR method. Type of series: cell-based.
Series [30] relates to NCI-H1650. Put plainly: Inhibition of YAP1/TEAD2 interaction in human NCI-H1650 cells assessed as suppression of CTGF mRNA expression at 5 to 10 uM incubated for 72 hrs by RT-PCR method. Type of series: cell-based.
The subject of series [31] is NCI-H1703. Put plainly: Inhibition of YAP1/TEAD2 interaction in human NCI-H1703 cells assessed as suppression of CTGF mRNA expression at 5 to 10 uM incubated for 72 hrs by RT-PCR method. Type of series: cell-based.
The target in series [32] is Transcriptional coactivator YAP1 (Homo sapiens) (UniProt P46937). Kind of series: Inhibition of YAP1 in human NCI-H1650 cells assessed as suppression of fibronectin mRNA expression at 5 to 10 uM incubated for 72 hrs by RT-PCR method. Type of series: cell-based.
Series [33] shares this target. Kind of series: Inhibition of YAP1 in human NCI-H1650 cells assessed as suppression of vimentin mRNA expression at 5 to 10 uM incubated for 72 hrs by RT-PCR method. Type of series: cell-based.
For series [34] the target is unchanged. Kind of series: Inhibition of YAP1 in human NCI-H1703 cells assessed as suppression of fibronectin mRNA expression at 5 to 10 uM incubated for 72 hrs by RT-PCR method. Type of series: cell-based.
Series [35] shares this target. Put plainly: Inhibition of YAP1 in human NCI-H1703 cells assessed as suppression of vimentin mRNA expression at 5 to 10 uM incubated for 72 hrs by RT-PCR method. Type of series: cell-based.
The target is the same in series [36]. Put plainly: Inhibition of YAP1 (unknown origin) assessed as disruption in YAP1/OCT4 interaction at 10 uM by ELISA relative to control.
Series [37] has the same target. Put plainly: Inhibition of YAP1 (unknown origin) assessed as disruption in YAP1/OCT4 interaction at 50 uM by cell based assay.
Series [38] concerns NCI-H1650. Kind of series: Inhibition of self-renewal capacity in stem-like side-population cells of human NCI-H1650 cells assessed as reduction in number of spheres at 5 to 50 uM incubated for 10 days by sphere formation assay. Type of series: functional, cell-based.
Series [39] deals with NCI-H1650. Put plainly: Cytotoxicity in human NCI-H1650 cells assessed as reduction in cell viability at 1 to 20 uM incubated for 72 hrs by MTT assay. Type of series: functional, cell-based.
Series [40] concerns A549. Put plainly: Cytotoxicity in human A549 cells assessed as reduction in cell viability at 1 to 20 uM incubated for 72 hrs by MTT assay. Type of series: functional, cell-based.
In series [41] the test system is NCI-H1650. Kind of series: Cytotoxicity in human NCI-H1650 cells assessed as reduction in cell viability at 20 to 50 uM incubated for 24 hrs followed by medium replacement with RPMI medium with 10% FCS for 48 hrs by MTT assay. Type of series: functional, cell-based.
For series [42], the system named is NCI-H1650. Put plainly: Cytotoxicity in human NCI-H1650 cells assessed as reduction in cell viability at 20 to 50 uM incubated for 72 hrs by MTT assay. Type of series: functional, cell-based.
Series [43] relates to NCI-H2286. Put plainly: Cytotoxicity in human NCI-H2286 cells assessed as reduction in cell viability at 5 to 50 uM incubated for 96 hrs by MTT assay. Type of series: functional, cell-based.
For series [44], the system named is NCI-H2170. Kind of series: Cytotoxicity in human NCI-H2170 cells assessed as reduction in cell viability at 5 to 50 uM incubated for 96 hrs by MTT assay. Type of series: functional, cell-based.
Series [45] relates to NCI-H1650. Kind of series: Cytotoxicity in human NCI-H1650 cells assessed as induction of cell killing in presence of cancer associated fibroblasts at 20 to 50 uM incubated for 24 to 48 hrs by cytotracker-red/green dye staining based immunofluorescence microscopy. Type of series: functional.
Series [46] is described as follows: Cytotoxicity in human cancer associated fibroblasts at 20 to 50 uM incubated for 24 to 48 hrs by cytotracker-red/green dye staining based immunofluorescence microscopy.

With `COC(=O)[C@H](Cc1ccc(OCc2ccccc2)cc1)NC(=O)CC1CCN(C(=O)c2ccc(NC(=O)OC(C)(C)C)cc2)CC1`, the inhibition entry in series [1], in series [2], in [3], in series [4], in [5] and in series [6] was “Active” in each case. The inhibition entry in [7], in series [8], in [9] and in series [10] was “Active” throughout.

As for `O=[N+]([O-])c1nc[nH]c1/C=C/c1cccc(F)c1`, the inhibition entry in series [7], in series [8], in series [11], in series [13], in series [14] and in series [15] was “Active” in each case. In addition, the inhibition result in series [22], in series [23], in series [24], in [25], in series [26] and in [27] was “Active” each time. The inhibition result in [28], in [29], in series [32], in series [33], in [34] and in series [35] was “Active” in each case. Further, the inhibition entry in [9] and in series [10] was “Active” each time. For the same compound, the result in [12] was Active. Further, the Activity result in [16], in series [17], in series [18], in series [19], in series [20] and in [21] was “Non-Toxic” in each case. The inhibition entry in [30] and in series [31] was “inactive” in each case.

On to `COC(=O)[C@H](Cc1ccc(OCc2ccccc2)cc1)NC(=O)CC1CCN(C(=O)Cc2ccccc2)CC1`, for which the figures for the inhibition in series [36] and in [37] were 80% and 82%, respectively. For the same compound, in [38], the inhibition result was “Active”. In addition, the outcome in series [39], in series [40], in series [41], in series [42], in series [43] and in series [44] was Active. The result in [45] was Active. The Activity entry in series [46] is “Non-Toxic”.

One may read the inhibition as the relative decrease from the control value, in per cent.
